This is an account of results in patent publication US20100158863A1, “TRIAZOLOANILINOPYRIMIDINE DERIVATIVES FOR USE AS ANTIVIRAL AGENTS” (ARROW THERAPEUTICS LIMITED, priority 2006, published 2010).

In data set [1] the test system is HCV replicon 1b. The data set can be described thus: ELISA, combined effect of HCV replication inhibitor with interferon αA. It counts as cell-based. To be noted: for IC50: Hepatitis C virus. The source says: ELISA Protocol as in Example 38
The fractional inhibitory concentratin (FIC) can be used to identify a synergistic interaction.
Background: ELISA stands for enzyme-linked immunosorbent assay.

Data set [2] relates to HCV replicon 1b (Huh-9B). The data set can be described thus: HCV replicon activity, luciferase detection on the replicon plate. The format is cell-based, HCV genotype 1b. To be noted: Huh-9B replicon cells, luciferase signal. The source says: 1b replicon (Huh.7) described in Science 285, 110-113. • Huh-9B: liver cell line with persistent bicistronic HCV genotype 1b coding sequence: [I3891ucubineo—3-3′_ET] includes firefly luciferase-ubiquitin-neomycin phosphotransferase fusion protein and EMCV-IRES driven non-structural HCV (NS3 to NS5B) coding sequence including cell culture adaptive mutations E1202G, […] and K1846T (Lohmann et al, 2001).
This assay is set up using all 96 wells of flat-bottomed 96-well plates. Plates are set up one day before addition of compounds. The assay then runs for 4 days with ELISA development taking place on the 5th day.
Exponentially growing Huh-9B monolayers are washed with sterile PBS to remove serum and treated with trypsin to detach cells from the flask.
(§1) Cells are suspended in growth media and counted using a haemocytometer. Duplicate 96 well plates are seeded with Huh-9B at a density of 10^4 cells/well in a total volume of 100 μl/well of growth medium without antibiotics as depicted below.
(§2) One of the plates is an opaque white 96-well plate used for IC50 determination based on the luciferase signal (referred as replicon plate), the other one is a clear 96-well plate used for a parallel determination of drug toxicity by methylene blue staining (referred as tox plate). Wells G12 and H12 of the tox plate are left without cells to use as buffer alone background reading.
Plates are then incubated at 37° C. in a 5% CO2 environment for 24 h to obtain a 90% confluent cell monolayer.
(§3) Doubling dilutions of each compound are generated in a separate 96 high volume capacity round bottom plate to twice their initial concentration in the assay using growth medium without antibiotics.
Five compounds (C1 to C5) are tested on each assay plate as illustrated below plus a control compound that is also included in each plate.
(§4) Compounds are tested across an 8 point doubling dilution series. The initial dilution of each compound to be tested is 25 μM and 12.5 μM for the control compound.
DMSO only wells (A1 and A2) at 1% provide the signal corresponding to maximal (100%) luciferase detection. […] The signal from the DMSO wells at 1% (maximal signal) constitutes the assay window.
(§5) For each compound dilution on the 2×96-well dilution plate 100 μl are transferred using a multichannel pipette onto the replicon and tox plates mirror wells which contain […] of medium to obtain the desired final concentration.
Media is tapped out from wells into Virkon and plates are washed once in warm PBS and tapped dry gently.
For each well 20 μl of lysis buffer is added by multichannel pipette. Lysates are stable at this point for several hours.
Luciferase assay buffer is placed it in the luminometer (Lmax, Molecular Devices).
The M injector is primed with 4×300 μl of luciferase assay buffer. The plate to be analyzed is placed in the luminometer and […] of luciferase assay buffer injected automatically into one well followed by 4 seconds integration read out.
After one second delay a second well is injected with 100 μl of luciferase assay buffer followed by 4 seconds integration read out and so forth until all 96 wells are analyzed.
Once the reading is finished the luminometer injection system is washed with deionised water.
The data is acquired using the SOFTmax for Lmax Pro software package.
(§6) SOFTmax data files are exported as Excel or text files. A standard four parameters non-linear regression analysis of the data obtained from each compound is then used to calculate the IC50.
(§7) In the above analysis all replicate wells are meaned. The % of control is then calculated for each concentration point as a percentage of the DMSO control wells.
In general terms: A replicon is a self-replicating genome or part of one, used to study replication in cells.

Data set [3] relates to Huh-9B. The data set can be described thus: Toxicity determination on the tox plate by methylene blue staining. It counts as cell-based. To be noted: Huh-9B cells, parallel tox plate. As for the experimental part: as §1, §2, §3, §4, §5
Media is tapped out from wells into Virkon and plates tapped dry gently. To each well 100 μl of 0.5% solution of methylene blue in 50% methanol is added to all wells including blanks (G12 and H12). Plates are left at RT for a minimum of 1 h. Plates are then rinsed gently by immersing in a plastic box with water, tapped dry gently and left open until they are fully dry. Dye is solubilized adding 100 μl of 1% lauroylsarcosine to each well and shaking for 1 h at 37° C. Plates are read on the SpectraMax spectrophotometer at 620 nm wavelength using the SOFTmax Pro software package.
as §6, §7

Where two headings read alike, the source gives them in different places. A value given as a limit tells only on which side of the number the result lay.

One may read the IC50 as the concentration that inhibits the measured activity by half. Take `COc1ccc(-c2ccc3ncnc(Nc4ccc(-n5cncn5)cc4)c3c2)cc1OC` [Example 10, [6-(3,4-Dimethoxy-phenyl)-quinazolin-4-yl]-(4-[1,2,4]triazol-1-yl-phenyl)-amine]: the IC50 in data set [1] (compound alone, read-out: ELISA IC50 against HCV replicon 1b) is 0.2 µM; in data set [1] (read-out: IC50 of compound in combination) it was not above 0.067 µM; in data set [2] (Hepatitis C virus), less than 5 µM. Moreover, the “fractional inhibitory concentration (FIC)” value in data set [1] (combination with interferon αA, FIC <0.5 = synergy) was 0.336. Also, the “Replicon TD50” value in data set [3] is “* (* <25 μM)”.

The compound `Fc1cc(-c2ccc3ncnc(Nc4ccc(-n5cncn5)cc4)c3c2)ccc1OCCCN1CCCC1` [Example 25, {6-[3 fluoro-4-(3-pyrrolidin-1-yl-propoxy)-phenyl]-quinazoline-4-yl}-(4-[1,2,4]triazole-1-yl-phenyl)amine] came in with a half-inhibitory concentration (IC50) in data set [2] (Hepatitis C virus) of less than 5 µM. Further, the “Replicon TD50” value in data set [3] is reported as “* (* <25 μM)”.

Consider `Fc1cc(-c2ccc3ncnc(Nc4ccc(-n5cncn5)cc4)c3c2)ccc1OCCCN1CCOCC1` [Example 26, {6-[3-fluoro-4-(3-morpholin-4-yl-propoxy)-phenyl]-quinazoline-4-yl}-(4-[1,2,4]triazole-1-yl-phenyl)amine], for which the IC50 in data set [2] (Hepatitis C virus) is less than 5 µM. The “Replicon TD50” value in data set [3] is listed as “* (* <25 μM)”.

`COc1ccc(-c2ccc3ncnc(Nc4ccc(-n5cncn5)cc4C)c3c2)cc1OC` [Example 27, [6-(3,4-Dimethoxy-phenyl)-quinazolin-4-yl]-(2-methyl-4-[1,2,4]triazol-1-yl-phenyl)-amine] returned an IC50 in data set [2] (Hepatitis C virus) of less than 5 µM. For the same compound, in data set [3], the “Replicon TD50” value is “* (* <25 μM)”.

As to `COc1ccc(-c2ccc3ncnc(Nc4ccc(-n5nc(C(=O)O)nc5C)cc4)c3c2)cc1OC` [Example 29, 1-(4-{6-[3,4-Dimethoxy-phenyl]-quinazolin-4-ylamino}-phenyl)-5-methyl-1H-[1,2,4]triazole-3-carboxylic acid], the half-inhibitory concentration (IC50) in data set [2] (Hepatitis C virus) lay in the range of 5 to 20 µM. For the same compound, the “Replicon TD50” value in data set [3] is given as “** (** >25 μM)”.

Turning to `COc1ccc(-c2ccc3ncnc(Nc4ccc(-n5nc(C(=O)N(C)C)nc5C)cc4)c3c2)cc1OC` [Example 30, 1-{-4-[6-(3,4-Dimethoxy-phenyl)-quinazolin-4-ylamino]-phenyl}-5-methyl-1H-[1,2,4]triazole-3-carboxylic acid dimethylamide], the IC50 in data set [2] (Hepatitis C virus) is less than 5 µM. For the same compound, the “Replicon TD50” value in data set [3] is “* (* <25 μM)”.

`CNC(=O)c1nc(C)n(-c2ccc(Nc3ncnc4ccc(-c5ccc(OCCOC)c(F)c5)cc34)cc2)n1` [Example 31, 1-(4-{6-[3-Fluoro-4-(2-methoxy-ethoxy)-phenyl]-quinazolin-4-ylamino}-phenyl)-5-methyl-1H-[1,2,4]triazole-3-carboxylic acid methylamide] displayed an IC50 in data set [2] (Hepatitis C virus) of less than 5 µM. Besides, the “Replicon TD50” value in data set [3] was “** (** >25 μM)”.

In turn, `COCCOc1ccc(-c2ccc3ncnc(Nc4ccc(-n5nc(C(=O)N(C)C)nc5C)cc4)c3c2)cc1F` [Example 32, 1-(4-{6-[3-Fluoro-4-(2-methoxy-ethoxy)-phenyl]-quinazolin-4-ylamino}-phenyl)-5-methyl-1H-[1,2,4]triazole-3-carboxylic acid dimethylamide] returned a 50% inhibitory concentration (IC50) in data set [2] (Hepatitis C virus) of less than 5 µM. Further, the “Replicon TD50” value in data set [3] is on record as “* (* <25 μM)”.

As to `Cc1cc(-n2cncn2)ccc1Nc1ncnc2ccc(Br)cc12` [Example 33], the IC50 in data set [2] is less than 5 µM. Moreover, the “Replicon TD50” value in data set [3] is “** (** >25 μM)”.

For the compound `COCCOc1ccc(-c2ccc3ncnc(Nc4ccc(-n5nc(C(=O)N6CCN(C)CC6)nc5C)cc4)c3c2)cc1F` [Example 34, [1-(4-{6-[3-Fluoro-4-(2-methoxy-ethoxy)-phenyl]-quinazolin-4-ylamino}-phenyl)-5-methyl-1H-[1,2,4]triazole-3-yl]-(4-methyl-piperazin-1-yl)methanone], the half-inhibitory concentration (IC50) in data set [2] (Hepatitis C virus) was less than 5 µM. Further, the “Replicon TD50” value in data set [3] is listed as “** (** >25 μM)”.
